This note sets out measurements from publication PMC6934184, “Selective DNA-PKcs inhibition extends the therapeutic index of localized radiotherapy and chemotherapy” (The Journal of Clinical Investigation, 2019).

The assay concerns the target T1, KIT V654A (Homo sapiens, UniProt P10721, V654A).
T1 construct: purchased Thermo Fisher Scientific (Life Technologies) SelectScreen
As to the kind of experiment: SelectScreen LanthaScreen. The format is binding. Conditions: read-out: % displacement. In short, it runs like this: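 SelectScreen broad panel; activity (Z'LYTE, Adapta) plus binding formats. ATP: Km app for CSF1R Z'LYTE; 10 for CAMK1 Adapta. Readout = % per kinase.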

T1 sequence (P10721 26-976 V654A): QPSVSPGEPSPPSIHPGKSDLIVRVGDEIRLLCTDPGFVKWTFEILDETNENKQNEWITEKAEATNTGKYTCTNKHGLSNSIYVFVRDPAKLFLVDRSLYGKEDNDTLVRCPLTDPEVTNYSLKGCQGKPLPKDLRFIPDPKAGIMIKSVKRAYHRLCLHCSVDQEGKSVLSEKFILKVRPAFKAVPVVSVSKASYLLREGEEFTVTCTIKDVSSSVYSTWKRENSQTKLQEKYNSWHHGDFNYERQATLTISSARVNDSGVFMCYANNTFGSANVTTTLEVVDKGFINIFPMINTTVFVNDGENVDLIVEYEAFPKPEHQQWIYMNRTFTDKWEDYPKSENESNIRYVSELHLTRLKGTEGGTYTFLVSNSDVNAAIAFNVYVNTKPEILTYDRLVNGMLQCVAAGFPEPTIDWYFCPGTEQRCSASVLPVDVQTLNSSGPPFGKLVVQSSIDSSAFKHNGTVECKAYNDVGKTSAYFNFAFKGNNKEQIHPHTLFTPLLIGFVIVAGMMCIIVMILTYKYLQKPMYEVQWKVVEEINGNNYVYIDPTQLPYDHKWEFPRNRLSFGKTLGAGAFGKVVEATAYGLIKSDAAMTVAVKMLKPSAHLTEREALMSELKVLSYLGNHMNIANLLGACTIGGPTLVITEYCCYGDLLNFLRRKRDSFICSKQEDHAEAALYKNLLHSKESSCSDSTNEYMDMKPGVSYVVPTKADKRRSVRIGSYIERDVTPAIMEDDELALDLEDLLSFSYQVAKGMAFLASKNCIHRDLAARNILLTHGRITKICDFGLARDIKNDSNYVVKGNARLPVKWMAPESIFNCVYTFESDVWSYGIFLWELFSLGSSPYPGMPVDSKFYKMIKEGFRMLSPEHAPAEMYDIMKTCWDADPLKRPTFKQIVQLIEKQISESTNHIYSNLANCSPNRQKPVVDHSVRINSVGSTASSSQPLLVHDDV

For `CN(C(=O)CN1CCOCC1)c1ccc2sc3c(-c4cccc5c(=O)cc(N6CC7CCC(C6)O7)oc45)cccc3c2c1` [NU5455], the inhibition at 1 µM came out at 8.1%.
